Results: ChEMBL document CHEMBL4038284, “Synthesis of novel quinoline-based 4,5-dihydro-1H-pyrazoles as potential anticancer, antifungal, antibacterial and antiprotozoal agents” (Eur J Med Chem, 2017)
In brackets after ≈: the same amount, converted by molar mass.

Key:
[1] = tested on: Klebsiella pneumoniae; test: Bactericidal activity against carbapenemase positive Klebsiella pneumoniae BAA 1705 after 24 hrs by resazurin dye based microdilution assay; assay type: functional; conditions: BAA 1705, 24 h
[2] = tested on: Staphylococcus aureus; test: Bactericidal activity against vancomycin-intermediate Staphylococcus aureus after 24 hrs by resazurin dye based microdilution assay; assay type: functional

SMILES: O=Cc1cccc(Nc2ccnc3cc(Cl)ccc23)c1
- MBC [1]: > 1000 µg/mL
- MBC [2]: 500 µg/mL (≈ 1770 µM)
